PubChem BioAssay AID180 (DTP/NCI, 2004)
Values joined by “and” are separate entries in the source; they are usually repeats but may differ in a detail not shown here. Equal values may be shown once.

Tested on: BDF1 mice, Adenocarcinoma 755 s.c., tumor weight T/C
Test: NCI In Vivo Anticancer Drug Screen. Data for tumor model Adenocarcinoma 755 (subcutaneous) in B6D2F1 (BDF1) mice
Conditions: endpoint: mean tumor weight, higher = larger tumour
How it was run: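 Transplantable tumor implanted; mice dosed with compound or vehicle; survival or tumor size recorded; ratio of treated to vehicle control reported.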

[1] = dose: 60.0 mg/kg/injection, schedule: Q01DX011 (ip), vehicle: carboxymethylcellulose (CMC)
[2] = dose: 15.0 mg/kg/injection, schedule: Q01DX011 (ip), vehicle: methylcellulose (MC)
[3] = dose: 62.0 mg/kg/injection, schedule: Q01DX011 (ip), vehicle: methylcellulose (MC)
[4] = dose: 125.0 mg/kg/injection, schedule: Q01DX011 (ip), vehicle: methylcellulose (MC)
[5] = dose: 25.0 mg/kg/injection, schedule: Q01DX011 (ip), vehicle: methylcellulose (MC)

Q: `CCCSc1ncnc2nc[nH]c12` was tested. Which T/C (dose: 0.12 mg/kg/injection, schedule: Q#A X022 (ip), vehicle: alcohol) did it give?
A: 73 % of control

Q: And the T/C (dose: 0.25 mg/kg/injection, schedule: Q#A X022 (ip), vehicle: alcohol)?
A: 46 % of control

Q: What about the T/C (dose: 0.5 mg/kg/injection, schedule: Q01DX011 (ip), vehicle: alcohol) of the same compound?
A: 80 % of control

Q: What about the T/C (dose: 1.0 mg/kg/injection, schedule: Q01DX006 (iv), vehicle: alcohol) of the same compound?
A: 111 % of control

Q: And the T/C (dose: 1.0 mg/kg/injection, schedule: Q01DX011 (im), vehicle: alcohol)?
A: 82 % of control

Q: And the T/C (dose: 1.0 mg/kg/injection, schedule: Q01DX011 (ip), vehicle: alcohol)?
A: 55 % of control

Q: What about the T/C (dose: 1.0 mg/kg/injection, schedule: Q01DX011 (oral), vehicle: alcohol) of the same compound?
A: 44 % of control

Q: What about the T/C (dose: 1.0 mg/kg/injection, schedule: Q01DX011 (sc), vehicle: alcohol) of the same compound?
A: 98 % of control

Q: And the T/C (dose: 1.0 mg/kg/injection, schedule: Q03DX004 (ip), vehicle: alcohol)?
A: 56 % of control

Q: And the T/C (dose: 2.5 mg/kg/injection, schedule: Q01DX011 (ip), vehicle: alcohol)?
A: 24 % of control

Q: What about the T/C (dose: 2.5 mg/kg/injection, schedule: Q#A X022 (ip), vehicle: alcohol) of the same compound?
A: 7 % of control

Q: And the T/C (dose: 3.0 mg/kg/injection, schedule: Q01DX011 (oral), vehicle: alcohol)?
A: 15 % of control

Q: And the T/C (dose: 3.0 mg/kg/injection, schedule: Q03DX004 (ip), vehicle: alcohol)?
A: 85 % of control

Q: What about the T/C (dose: 3.0 mg/kg/injection, schedule: Q07DX002 (ip), vehicle: alcohol) of the same compound?
A: 53 % of control

Q: What about the T/C (dose: 5.0 mg/kg/injection, schedule: Q01DX006 (iv), vehicle: alcohol) of the same compound?
A: 16 % of control

Q: What about the T/C (dose: 5.0 mg/kg/injection, schedule: Q01DX011 (im), vehicle: alcohol) of the same compound?
A: 9 % of control

Q: And the T/C (dose: 5.0 mg/kg/injection, schedule: Q01DX011 (ip), vehicle: alcohol)?
A: 3 % of control

Q: And the T/C (dose: 5.0 mg/kg/injection, schedule: Q01DX011 (sc), vehicle: alcohol)?
A: 5 % of control

Q: And the T/C (dose: 5.0 mg/kg/injection, schedule: Q#A X022 (ip), vehicle: alcohol)?
A: 3 % of control

Q: And the T/C (dose: 6.0 mg/kg/injection, schedule: Q01DX011 (oral), vehicle: alcohol)?
A: 4 % of control

Q: What about the T/C (dose: 6.0 mg/kg/injection, schedule: Q03DX004 (ip), vehicle: alcohol) of the same compound?
A: 74 % of control

Q: What about the T/C (dose: 6.0 mg/kg/injection, schedule: Q07DX002 (ip), vehicle: alcohol) of the same compound?
A: 20 % of control

Q: What about the T/C (dose: 10.0 mg/kg/injection, schedule: Q01DX006 (iv), vehicle: alcohol) of the same compound?
A: 10 % of control

Q: What about the T/C (dose: 10.0 mg/kg/injection, schedule: Q01DX011 (ip), vehicle: alcohol) of the same compound?
A: 4 % of control

Q: What about the T/C (dose: 10.0 mg/kg/injection, schedule: Q01DX011 (sc), vehicle: alcohol) of the same compound?
A: 4 % of control

Q: And the T/C (dose: 10.0 mg/kg/injection, schedule: Q#A X022 (ip), vehicle: alcohol)?
A: 4 % of control

Q: What about the T/C (dose: 12.0 mg/kg/injection, schedule: Q01DX001 (ip), vehicle: alcohol) of the same compound?
A: 62 % of control

Q: What about the T/C (dose: 12.0 mg/kg/injection, schedule: Q01DX011 (oral), vehicle: alcohol) of the same compound?
A: 4 % of control

Q: And the T/C (dose: 12.0 mg/kg/injection, schedule: Q03DX004 (ip), vehicle: alcohol)?
A: 26 % of control

Q: What about the T/C (dose: 12.0 mg/kg/injection, schedule: Q07DX002 (ip), vehicle: alcohol) of the same compound?
A: 36 % of control

Q: What about the T/C (dose: 20.0 mg/kg/injection, schedule: Q01DX006 (iv), vehicle: alcohol) of the same compound?
A: 1 % of control

Q: And the T/C (dose: 20.0 mg/kg/injection, schedule: Q01DX011 (ip), vehicle: alcohol)?
A: 2 % of control

Q: And the T/C (dose: 20.0 mg/kg/injection, schedule: Q01DX011 (sc), vehicle: alcohol)?
A: 6 % of control

Q: What about the T/C (dose: 25.0 mg/kg/injection, schedule: Q01DX001 (ip), vehicle: alcohol) of the same compound?
A: 49 % of control

Q: And the T/C (dose: 25.0 mg/kg/injection, schedule: Q03DX004 (ip), vehicle: alcohol)?
A: 5 % of control

Q: And the T/C (dose: 25.0 mg/kg/injection, schedule: Q07DX002 (ip), vehicle: alcohol)?
A: 12 % of control

Q: And the T/C (dose: 30.0 mg/kg/injection, schedule: Q01DX011 (ip), vehicle: alcohol)?
A: 3 % of control

Q: And the T/C (dose: 50.0 mg/kg/injection, schedule: Q03DX004 (ip), vehicle: alcohol)?
A: 16 % of control

Q: And the T/C (dose: 50.0 mg/kg/injection, schedule: Q07DX002 (ip), vehicle: alcohol)?
A: 16 % of control

Q: And the T/C (dose: 100.0 mg/kg/injection, schedule: Q01DX001 (ip), vehicle: alcohol)?
A: 35 % of control and 51 % of control

Q: And the T/C (dose: 100.0 mg/kg/injection, schedule: Q03DX004 (ip), vehicle: alcohol)?
A: 3 % of control

Q: What about the T/C (dose: 100.0 mg/kg/injection, schedule: Q07DX002 (ip), vehicle: alcohol) of the same compound?
A: 17 % of control

Q: And the T/C (dose: 150.0 mg/kg/injection, schedule: Q01DX001 (ip), vehicle: alcohol)?
A: 21 % of control and 34 % of control

Q: And the T/C (dose: 150.0 mg/kg/injection, schedule: Q03DX004 (ip), vehicle: alcohol)?
A: 5 % of control

Q: What about the T/C (dose: 150.0 mg/kg/injection, schedule: Q07DX002 (ip), vehicle: alcohol) of the same compound?
A: 5 % of control

Q: And the T/C (dose: 200.0 mg/kg/injection, schedule: Q07DX002 (ip), vehicle: alcohol)?
A: 5 % of control

Q: Which T/C (dose: 30.0 mg/kg/injection, schedule: Q01DX011 (ip), vehicle: carboxymethylcellulose (CMC)) does the source give for `Nc1nc2c([nH]c(=S)n2C2OC(CO)C(O)C2O)c(=O)[nH]1` (configuration not stated) here?
A: 89 % of control

Q: What about the T/C [1] of the same compound?
A: 156 % of control

Q: And the T/C (dose: 120.0 mg/kg/injection, schedule: Q01DX011 (ip), vehicle: carboxymethylcellulose (CMC))?
A: 112 % of control

Q: And the T/C (dose: 240.0 mg/kg/injection, schedule: Q01DX011 (ip), vehicle: carboxymethylcellulose (CMC))?
A: 110 % of control

Q: Which T/C [2] does the source give for `Nc1nc(=S)cc(Nc2cccc(Cl)c2)[nH]1` here?
A: 91 % of control

Q: What about the T/C [3] of the same compound?
A: 87 % of control

Q: And the T/C [4]?
A: 51 % of control

Q: What does the source list for `CCOc1ccccc1Nc1nc(N)nc(Cl)c1CC`?
A: T/C [2]: 73 % of control; T/C (dose: 31.0 mg/kg/injection, schedule: Q01DX011 (ip), vehicle: methylcellulose (MC)): 79 % of control; T/C [3]: 87 % of control; T/C [4]: 98 % of control; T/C (dose: 250.0 mg/kg/injection, schedule: Q01DX011 (ip), vehicle: methylcellulose (MC)): 100 % of control

Q: For `CC1=CCN2CCC(O)C12` (configuration not stated), which T/C (dose: 38.0 mg/kg/injection, schedule: Q01DX011 (ip), vehicle: carboxymethylcellulose (CMC)) is on record?
A: 95 % of control

Q: And the T/C (dose: 150.0 mg/kg/injection, schedule: Q01DX011 (ip), vehicle: carboxymethylcellulose (CMC))?
A: 75 % of control

Q: `CSc1nc(Cl)cc(NC(=O)CCl)n1` was tested. Which T/C [1] did it give?
A: 124 % of control

Q: With `Cc1ccc(N2CCN(CCCN3CCN(c4ccc(Cl)cc4)CC3)CC2)cc1` as the compound, how does the T/C (dose: 0.05 mg/kg/injection, schedule: Q01DX011 (ip), vehicle: carboxymethylcellulose (CMC)) read?
A: 100 % of control

Q: And the T/C (dose: 0.09 mg/kg/injection, schedule: Q01DX011 (ip), vehicle: carboxymethylcellulose (CMC))?
A: 66 % of control

Q: What about the T/C (dose: 0.18 mg/kg/injection, schedule: Q01DX011 (ip), vehicle: carboxymethylcellulose (CMC)) of the same compound?
A: 116 % of control

Q: What about the T/C (dose: 0.37 mg/kg/injection, schedule: Q01DX011 (ip), vehicle: carboxymethylcellulose (CMC)) of the same compound?
A: 104 % of control

Q: And the T/C (dose: 0.75 mg/kg/injection, schedule: Q01DX011 (ip), vehicle: methylcellulose (MC))?
A: 38 % of control

Q: And the T/C (dose: 1.5 mg/kg/injection, schedule: Q01DX011 (ip), vehicle: methylcellulose (MC))?
A: 37 % of control

Q: And the T/C (dose: 12.5 mg/kg/injection, schedule: Q01DX011 (ip), vehicle: methylcellulose (MC))?
A: 76 % of control

Q: And the T/C [5]?
A: 48 % of control

Q: What about the T/C (dose: 50.0 mg/kg/injection, schedule: Q01DX011 (ip), vehicle: methylcellulose (MC)) of the same compound?
A: 42 % of control and 46 % of control

Q: Which T/C (dose: 5.0 mg/kg/injection, schedule: Q01DX011 (ip), vehicle: saline) does the source give for `OCCOCCN1CCN(CCCN2c3ccccc3Sc3ccc(C(F)(F)F)cc32)CC1` here?
A: 54 % of control and 75 % of control

Q: What about the T/C (dose: 20.0 mg/kg/injection, schedule: Q01DX011 (ip), vehicle: saline) of the same compound?
A: 12 % of control and 29 % of control

Q: Which T/C (dose: 37.5 mg/kg/injection, schedule: Q01DX011 (ip), vehicle: saline) does the source give for `CCC(C)N1C(=O)CCC1=O` (configuration not stated) here?
A: 26 % of control

Q: What about the T/C (dose: 75.0 mg/kg/injection, schedule: Q01DX011 (ip), vehicle: saline) of the same compound?
A: 58 % of control

Q: What about the T/C (dose: 150.0 mg/kg/injection, schedule: Q01DX011 (ip), vehicle: saline) of the same compound?
A: 95 % of control

Q: And the T/C (dose: 300.0 mg/kg/injection, schedule: Q01DX011 (ip), vehicle: saline)?
A: 99 % of control

Q: How did the T/C [5] turn out when `Cn1c(=O)c2c(nc(C(=N)SCC(=O)O)n2C)n(C)c1=O` was run?
A: 61 % of control
